The test deals with MHC-II allele DRB1*01:01 (Homo sapiens, UniProt P01903+P01911, A100R/D57E/F55L/F60I/F76Y/I96L/L162R/M171V/P40L/Q125E/R42F/V115G/Y59C). The test is classed as binding.
[1] abbreviates: DRB1*01:01, SF-high / SF-low assigned from REVEAL scores.

The values that follow come from article PMC9986244, “Connection between MHC class II binding and aggregation propensity: The antigenic peptide 10 of Paracoccidioides brasiliensis as a benchmark study” (Computational and Structural Biotechnology Journal, 2023).

Like-named read-outs stand apart in the source and are kept apart here.

As to QTLIAIHTLAIRYAN [Peptide P10], the “Affinity for MHC-II (subfamily by experimental affinity scores)” value (shortened to “Affinity for MHC-II”) is given as “high affinity”.

For the sequence QPFPDIHTLAIRYAN [Peptide V3], the “Affinity for MHC-II” value under setting [1] is on record as “low affinity”.

As to QGLKAIHTLAIRYAN [Peptide V10], the “Affinity for MHC-II” value under setting [1] was “high affinity”.

In the case of QNHHAIHTLAIRYAN [Peptide V15], the “Affinity for MHC-II” value under setting [1] is recorded as “low affinity”.

As for QTLTAIHTLAIRYAN [Peptide V6], the “Affinity for MHC-II” value under setting [1] is on record as “high affinity”.

Turning to QTYHAIHTLAIRYAN [Peptide V14], the “Affinity for MHC-II” value under setting [1] is recorded as “high affinity”.

As for QGLPAIHTLAIRYAN [Peptide V7], under setting [1], the “Affinity for MHC-II” value is given as “low affinity”.

As for QTLLDIHTLAIRYAN [Peptide V1], the “Affinity for MHC-II” value under setting [1] is given as “low affinity”.

In the case of QTLQAIHTLAIRLAN [Peptide V11], under setting [1], the “Affinity for MHC-II” value was “high affinity”.

As for QMLHAIHTLAIRYAN [Peptide V16], under setting [1], the “Affinity for MHC-II” value is “high affinity”.

With QPFQDIHTLAIRYAN [Peptide V5], the “Affinity for MHC-II” value under setting [1] was “low affinity”.
